pIC50: −log10 of the molar value. Where two headings read alike, the source gives them in different places.
Columns and labels:
[1] = molecular target: Cys242 in human PIK3CA (157-299) (Homo sapiens (Human), UniProt P42336); test: Covalent modification assay using MALDI-TOF MS; type: biochemical; details: 4 h reaction time point; 3.33 μM protein target, 1:7.5 protein to compound ratio (compounds 1-852)
In short: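 Covalent adduct formation was read by linear-mode MALDI-TOF with sinapinic acid matrix, reported as modified-protein peak height divided by total protein peak heights. Reactions held PIK3CA (157-299) at 1 or 3.33 μM in HEPES/NaCl/MgCl2 buffer, pH 7.3, sampled after 15 min to 4 h at room temperature.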

pAKT in BT474 cells = test: Cell-based pAKT HTRF assay in BT474 cells; details: BT474 cells, 4 hr incubation, Compounds 10-999, read-out: pAKT inhibition IC50 in BT474 cells
In short: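 Treatment lasts 4 hr in DMEM/10% FBS at 0.25% DMSO over nine 3-fold dilutions from 3 μM. The lysate is then probed by HTRF.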

Sequence of Cys242 in human PIK3CA (157-299) (P42336 157-299): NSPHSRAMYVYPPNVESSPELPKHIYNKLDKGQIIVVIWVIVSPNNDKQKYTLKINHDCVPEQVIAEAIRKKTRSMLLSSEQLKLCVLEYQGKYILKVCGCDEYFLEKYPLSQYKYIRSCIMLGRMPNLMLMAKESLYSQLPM

pIC50 (pAKT in BT474 cells)	pIC50 (pAKT in BT474 cells; Homo sapiens, BT-474)	Structure (SMILES)	% of modification [1]
> 7.00		C=CC(=O)N1CCc2ncc(-c3nc(-c4cnn(C)c4)c4ccsc4c3-c3c(F)cc(F)cc3OC(C)C)cc2C1 [Compound 324]	A (percent of modification of PIK3CA protein ≥75%)
6.00 to 7.00		C=C(F)C(=O)N1CCn2nc(-c3nc(-c4ccc5c(c4)CCN(C)C5)c4ccsc4c3-c3ccc(F)cc3OCC(F)F)cc2C1 [Compound 325]	B (50%<percent of modification <75%)
> 7.00		C=CC(=O)N1CCc2ncc(-c3nc(-c4ccc5c(c4)CNC5=O)c4ccsc4c3-c3c(F)cc(F)cc3OC(C)C)cc2C1 [Compound 326]	A (percent of modification of PIK3CA protein ≥75%)
> 7.00		C=CC(=O)N1CCc2ncc(-c3nc(-c4cnc5c(c4)CN(C)CC5)c4ccsc4c3-c3c(F)cc(F)cc3OC(C)C)cc2C1 [Compound 327]	A (percent of modification of PIK3CA protein ≥75%)
> 7.00		C=CC(=O)N1CC[C@H](n2cc(-c3nc(-c4ccc5c(c4)CNC5=O)c4ccsc4c3-c3ccc(F)cc3OC(C)C)cn2)C1 [Compound 328]	A (percent of modification of PIK3CA protein ≥75%)
6.00 to 7.00		C=CC(=O)N1CC[C@@H](n2ccc(-c3nc(-c4cnn(C)c4)c4ccsc4c3-c3ccc(F)cc3OC(C)C)n2)C1 [Compound 329]	A (percent of modification of PIK3CA protein ≥75%)
> 7.00		C=CC(=O)N1CCc2ncc(-c3nc(-c4ccc(=O)n(C)c4)c4ccsc4c3-c3c(F)cc(F)cc3OC(C)C)cc2C1 [Compound 330]	A (percent of modification of PIK3CA protein ≥75%)
	5.52 to 6.00	C=CC(=O)N1CCn2nc(-c3nc(-c4ccc(=O)n(C)c4)nc(C)c3-c3ccc(F)cc3OC(C)C)cc2C1 [Compound 331, 5-[5-(4-fluoro-2-isopropoxy-phenyl)-4-methyl-6-(5-prop-2-enoyl-6,7-dihydro-4H-pyrazolo[1,5-a]pyrazin-2-yl)pyrimidin-2-yl]-1-methyl-pyridin-2-one]	A (percent of modification of PIK3CA protein ≥75%)
	> 7.00	C=CC(=O)N1CC[C@H](n2cc(-c3nc(-c4ccc5c(c4)CNC5=O)c4ccsc4c3-c3c(F)cc(F)cc3OC(C)C)cn2)C1 [Compound 334, 5-[7-(2,4-difluoro-6-isopropoxy-phenyl)-6-[1-[(3S)-1-prop-2-enoylpyrrolidin-3-yl]pyrazol-4-yl]thieno[3,2-c]pyridin-4-yl]isoindolin-1-one]	A (percent of modification of PIK3CA protein ≥75%)
> 7.00		C=CC(=O)N1CCc2ncc(-c3nc(-c4ccc(=O)n(C(F)F)c4)c4ccsc4c3-c3c(F)cc(F)cc3OC(C)C)cc2C1 [Compound 335]	A (percent of modification of PIK3CA protein ≥75%)
> 7.00		C=CC(=O)N1CCc2ncc(-c3nc(-c4ccn(C)c(=O)c4)c4ccsc4c3-c3c(F)cc(F)cc3OC(C)C)cc2C1 [Compound 336]	A (percent of modification of PIK3CA protein ≥75%)
	< 5.52	C=CC(=O)N1CCn2nc(-c3nc(-c4ccc(=O)n(C)c4)ncc3-c3ccc(F)cc3OC(C)C)cc2C1 [Compound 337, 5-[5-(4-fluoro-2-isopropoxy-phenyl)-4-(5-prop-2-enoyl-6,7-dihydro-4H-pyrazolo [1,5-a]pyrazin-2-yl)pyrimidin-2-yl]-1-methyl-pyridin-2-one]	B (50%<percent of modification <75%)
> 7.00		C=CC(=O)N1CCc2nc(-c3nc(-c4cnn(C)c4)c4ccsc4c3-c3c(F)cc(F)cc3OC(C)C)sc2C1 [Compound 339]	A (percent of modification of PIK3CA protein ≥75%)
> 7.00		C=C(F)C(=O)N1CCn2nc(-c3nc(-c4cnc5c(c4)CN(C)CC5)c4ccsc4c3-c3c(F)cc(F)cc3OC(C)C)cc2C1 [Compound 340]	B (50%<percent of modification <75%)
> 7.00		C=C(F)C(=O)N1CCn2nc(-c3nc(-c4ccc5c(c4)CNC5=O)c4ccsc4c3-c3c(F)cc(F)cc3OC(C)C)cc2C1 [Compound 341]	B (50%<percent of modification <75%)
> 7.00		C=C(F)C(=O)N1CCn2nc(-c3nc(-c4ccc5c(c4)CCN(C)C5)c4ccsc4c3-c3c(F)cc(F)cc3OC(C)C)cc2C1 [Compound 342]	B (50%<percent of modification <75%)
> 7.00		C=CC(=O)N1CCc2nc(-c3nc(-c4cnn(CC(C)(C)O)c4)c4ccsc4c3-c3c(F)cc(F)cc3OC(C)C)sc2C1 [Compound 344]	A (percent of modification of PIK3CA protein ≥75%)

pIC50 (pAKT in BT474 cells)	pIC50 (pAKT in BT474 cells; Homo sapiens, BT-474)	Structure (SMILES)	% of modification [1]
> 7.00		C=CC(=O)N1CCc2ncc(-c3nc(-c4cnn(CC(C)(C)O)c4)c4ccsc4c3-c3c(F)cc(F)cc3OC(C)C)cc2C1 [Compound 345]	A (percent of modification of PIK3CA protein ≥75%)
6.00 to 7.00		C=CC(=O)N1CCc2nc(-c3nc(-c4ccc(=O)n(C(F)F)c4)c4ccsc4c3-c3c(F)cc(F)cc3OC(C)C)sc2C1 [Compound 347]	A (percent of modification of PIK3CA protein ≥75%)
> 7.00		C=CC(=O)N1CCc2nc(-c3nc(-c4ccc(=O)n(C)c4)c4ccsc4c3-c3c(F)cc(F)cc3OC(C)C)sc2C1 [Compound 348]	A (percent of modification of PIK3CA protein ≥75%)
6.00 to 7.00		C=CC(=O)N1CCc2nc(-c3nc(-c4cnn(C)c4N)c4ccsc4c3-c3c(F)cc(F)cc3OC(C)C)sc2C1 [Compound 351]	A (percent of modification of PIK3CA protein ≥75%)
> 7.00		C=CC(=O)N1CCc2nc(-c3nc(-c4ccn(C)c(=O)c4)c4ccsc4c3-c3c(F)cc(F)cc3OC(C)C)sc2C1 [Compound 352]	A (percent of modification of PIK3CA protein ≥75%)
6.00 to 7.00		C=C(F)C(=O)N1CCn2nc(-c3nc(-c4ccc5c(c4)CNC5=O)c4ccsc4c3-c3c(F)cc(F)cc3OCC(F)F)cc2C1 [Compound 353]	B (50%<percent of modification <75%)
> 7.00		C=C(F)C(=O)N1CCn2nc(-c3nc(-c4ccc5c(c4)[C@@H](O)CC5)c4ccsc4c3-c3c(F)cc(F)cc3OC(C)C)cc2C1 [Compound 354]	B (50%<percent of modification <75%)
	< 5.52	C=CC(=O)N1CCn2nc(-c3nc(-c4cnn(C)c4)c(Cl)cc3-c3ccc(F)cc3OCCOC)cc2C1 [Compound 355, 1-[2-[5-chloro-3-[4-fluoro-2-(2-methoxyethoxy)phenyl]-6-(1-methylpyrazol-4-yl)-2-pyridyl]-6,7-dihydro-4H-pyrazolo[1,5-a]pyrazin-5-yl]prop-2-en-1-one]	A (percent of modification of PIK3CA protein ≥75%)
> 7.00		C=C(F)C(=O)N1CCn2nc(-c3nc(-c4cnc5c(c4)CNC5=O)c4ccsc4c3-c3c(F)cc(F)cc3OC(C)C)cc2C1 [Compound 356]	A (percent of modification of PIK3CA protein ≥75%)
	> 7.00	C=CC(=O)N1Cc2cc(-c3nc(-c4cnn(C)c4)c4ccsc4c3-c3ccc(F)cc3OC(C)C)nn2[C@H](C)C1 [Compound 357, 1-((7R)-2-(7-(4-fluoro-2-isopropoxyphenyl)-4-(1-methyl-1H-pyrazol-4-yl)thieno[3,2-c]pyridin-6-yl)-7-methyl-6,7-dihydropyrazolo[1,5-a]pyrazin-5(4H)-yl)prop-2-en-1-one]	A (percent of modification of PIK3CA protein ≥75%)
6.00 to 7.00		C=CC(=O)N1CC[C@H](n2cc(-c3nc(-c4cnn(C)c4)c4ccsc4c3-c3c(F)cc(F)cc3OC(C)C)cn2)C1 [Compound 358]	A (percent of modification of PIK3CA protein ≥75%)
> 7.00		C=CC(=O)N1CCc2ncc(-c3nc(-c4ccn(C(F)F)c(=O)c4)c4ccsc4c3-c3c(F)cc(F)cc3OC(C)C)cc2C1 [Compound 359]	A (percent of modification of PIK3CA protein ≥75%)
	< 5.52	C=CC(=O)N1CCc2ncc(-c3nc(-c4cnn(C)c4)c(C(F)(F)F)cc3-c3ccc(F)cc3OC(C)C)cc2C1 [Compound 360, 1-[3-[3-(4-fluoro-2-isopropoxy-phenyl)-6-(1-methylpyrazol-4-yl)-5-(trifluoromethyl)-2-pyridyl]-7,8-dihydro-5H-1,6-naphthyridin-6-yl]prop-2-en-1-one]	B (50%<percent of modification <75%)
> 7.00		C=C(F)C(=O)N1CCn2nc(-c3nc(-c4ccc5c(c4)CNC5=O)c4ccsc4c3-c3ccc(Cl)cc3OC(C)C)cc2C1 [Compound 361]	A (percent of modification of PIK3CA protein ≥75%)
6.00 to 7.00		C=CC(=O)N1CCc2nc(-c3nc(-c4ccn(C(F)F)c(=O)c4)c4ccsc4c3-c3c(F)cc(F)cc3OC(C)C)sc2C1 [Compound 362]	A (percent of modification of PIK3CA protein ≥75%)
> 7.00		C=CC(=O)N1CCc2nc(-c3nc(-c4cnn(C)c4)c4ccsc4c3-c3c(F)cc(F)cc3OCCOC)sc2C1 [Compound 363]	A (percent of modification of PIK3CA protein ≥75%)
> 7.00		C=CC(=O)N1CCc2nc(-c3nc(-c4ccc5c(c4)CNC5=O)c4ccsc4c3-c3c(F)cc(F)cc3OCCOC)sc2C1 [Compound 364]	A (percent of modification of PIK3CA protein ≥75%)
